Data: the NIST ThermoML archive (doi:10.1016/j.tca.2004.07.014)

How the values were obtained:
[1] = 303.15 K, 101.3 kPa, Liquid; for viscosity: Capillary tube (Ostwald / Ubbelohde) method; for speed of sound: Linear variable-path acoustic interferometer
[2] = xn = mol fraction of the nth substance listed; details: 303.15 K, 101.3 kPa, Liquid; for speed of sound: Linear variable-path acoustic interferometer

CCOC(=O)CC(=O)OCC [diethyl 1,3-propanedioate]
[1]
Details | mass density [kg/m3] | speed of sound [m/s] | viscosity [mPa·s]
– | 1043.23 | 1274 | 1.721

CCOC(=O)CC(=O)OCC [diethyl 1,3-propanedioate] + ClC(Cl)(Cl)Cl
[2]
Details | mass density [kg/m3] | speed of sound [m/s] | viscosity [mPa·s]
x1 = 0.1173 | 1480.36 | 949 | 0.857
x1 = 0.2031 | 1419.02 | 982 | 0.877
x1 = 0.2999 | 1356.61 | 1018 | 0.918
x1 = 0.4623 | 1265.6 | 1080 | 1.002
x1 = 0.5648 | 1215.59 | 1120 | 1.084
x1 = 0.6579 | 1174.08 | 1154 | 1.167
x1 = 0.7478 | 1136.91 | 1185 | 1.272
x1 = 0.8311 | 1104.69 | 1216 | 1.388
x1 = 0.9189 | 1072.19 | 1247 | 1.544
x1 = 1 | 1043.23 | 1274 | 1.721

CCOC(=O)CC(=O)OCC [diethyl 1,3-propanedioate] + ClC(Cl)Cl
[2]
Details | mass density [kg/m3] | speed of sound [m/s] | viscosity [mPa·s]
x1 = 0.0968 | 1399.36 | 999 | 0.533
x1 = 0.2004 | 1334.53 | 1031 | 0.568
x1 = 0.3089 | 1276.4 | 1065 | 0.622
x1 = 0.4122 | 1228.62 | 1097 | 0.692
x1 = 0.5385 | 1178.25 | 1136 | 0.808
x1 = 0.6125 | 1151.99 | 1159 | 0.891
x1 = 0.7225 | 1116.7 | 1192 | 1.05
x1 = 0.8156 | 1089.85 | 1220 | 1.226
x1 = 0.9071 | 1065.78 | 1246 | 1.444

CCOC(=O)C(Br)C(=O)OCC [diethyl bromomalonate]
[1]
Details | mass density [kg/m3] | speed of sound [m/s] | viscosity [mPa·s]
– | 1399.18 | 1166 | 3.614

CCOC(=O)C(Br)C(=O)OCC [diethyl bromomalonate] + ClC(Cl)(Cl)Cl
[2]
Details | mass density [kg/m3] | speed of sound [m/s] | viscosity [mPa·s]
x1 = 0.1001 | 1552.35 | 944 | 1.012
x1 = 0.1992 | 1531.61 | 980 | 1.207
x1 = 0.3007 | 1512.21 | 1012 | 1.433
x1 = 0.4088 | 1492.99 | 1047 | 1.705
x1 = 0.4988 | 1478.09 | 1072 | 1.948
x1 = 0.5999 | 1462.1 | 1098 | 2.255
x1 = 0.699 | 1446.77 | 1121 | 2.571
x1 = 0.8988 | 1415.72 | 1155 | 3.25
x1 = 1 | 1399.18 | 1166 | 3.614
